Reference: patent US11149028B2, “Methods for treating melanoma using small molecules” (NOVA SOUTHEASTERN UNIVERSITY, priority 2016, dated 2021)
“Also recorded” adds a separate entry of the source.

Assays:
[1] = system: WM266-4 cells; assay: Mitochondrial potential assay; type: cell-based, human; settings: 1 and 4 h; time stated at the place
Protocol: 5,000 WM266-4 cells were seeded in 100 μL of EMEM medium supplemented with 10% FBS in 24-well plate. The cells were treated with carbonyl cyanide m-chlorophenyl hydrazone (CCCP, 25-50 μM) as a pharmacological control and 1-100 μM of 2155-14. After 1, 4, and 24 h, the cells were stained with 200 nM of Mito-Tracker dye (ThermoFisher cat #M22425) and DAPI for 1 h. Finally, the cells were washed with PBS and media was added. The cells were imaged and analyzed using Cytation 5 imager using Cy5 and DAPI filter sets (Biotek Inc, Winoosky, Vt.). To calculate staining intensity, the Object Sum Area value from Cy5 channel was obtained and divided by number of cells using DAPI channel. Both Cy5 and DAPI cell counts were conducted using optimized algorithm in automatic mode. 3 replicate wells were used.

[2] = system: calpain in WM266-4 cells; assay: Calpain activity assay (Calpain-Glo); type: cell-based, human; settings: 100 μM; 30 min, 4 and 24 h
Protocol: The Calpain-Glo Protease Assay (Promega cat #) was used to measure the calpain enzyme activity in live cells, according to the manufacturer's instructions. 1,250 of WM-266-4 cells were plated in 384-well white TC-treated plates in 5 μL of serum-free EMEM media. The cells were incubated overnight at 37° C., 5% CO2 and 95% relative humidity and 5 μL of test compounds 2155-14, (100 μM), calpain inhibitor III and PD151746 (25 μM) were added alone or in combination and incubated at 37° C., 5% CO2, and 95% relative humidity for 0.5, 4, and 24 h. After incubation, 10 μL, of a freshly prepared dilution of the Calpain-Glo Reagent stock solution (consisting of Suc-LLVY-Glo™ substrate, Calpain-Glo™ buffer, Luciferin Detection Reagent, and CaCl2) was added to cells at above mentioned times and luminescence was recorded with a Neo 2 microplate reader (Biotek Inc). All experiments were performed in triplicate and the values provided are the calculated average of at least three independent experiments.

Compound: O=C1NC[C@H](Cc2ccccc2)N(C[C@@H]2CCCN2C[C@@H](CC2CCCCC2)N2C[C@H](Cc3ccc(O)cc3)N(CCc3ccccc3)C(=O)C2=O)C1=O [Compound 2155-14, (S)-1((R)-1((S)-2-(((S)-6-benzyl-2,3-dioxopiperazin-1-yl)methyl)pyrrolidin-1-yl)-3-cyclohexylpropan-2-yl)-5-(4-hydroxybenzyl)-4-phenethylpiperazine-2,3-dione]
- mitochondrial potential [1]: no significant effect 1 h after the addition of compounds; also recorded: At 4 h, mitochondrial potential was decreased; also recorded: no significance between untreated control and cells treated with 2155-14
- calpain activity [2]: Calpain activity at 30 min was at the baseline level; also recorded: time-dependent increase of activity at 4 and 24 h
